Results published in patent US20050037436A1, “Test systems and the use thereof for identifying and characterizing compounds” (priority 2000, published 2005).
“And” between values parts separate entries of the source, which are not always exact repeats. Equal entries are not always repeated. “Also recorded” adds a separate entry of the source. Where two headings read alike, the source gives them in different places.

Key:
[1] = test system: HC110-R; format: cell-based, Haemonchus contortus; details: for α-LTX-induced increase in [Ca2+]i after preincubation: substance removed, then 75 nM α-LTX
Description: The intracellular free Ca^2+ concentration [Ca^2+]i was measured in COS-7 and HEK293 cells transiently transfected with the HC110-R-EGFP or β2-AR-EGFP construct using the calcium imaging method (see also FIG. 11). In each case 2×10^5 COS-7 and HEK293 cells were applied to a 42 mm cover glass coated with 1% gelatine in 55 mm tissue culture dishes with 5 ml of DMEM medium (with 10% FCS and pen/strep). The transfection took place with the aid of the non-liposomal transfection reagent FuGENE 6 (Roche Molecular Biochemicals, Mannheim). […] Constructs of the HC110-R full-length clone with a GFP tag fused in the correct reading frame, and the complete cDNA of the β2-adrenergic receptor which had likewise been provided with a GFP tag at the 3′ end, were transfected.
After the incubation, the cells loaded with Fura-2/AM were examined under an inverted microscope (Zeiss, Axiovert, Germany) and, in parallel with this, in a digital imaging fluorescence microscope (PTI) and differentiated into transfected and untransfected cells at a wavelength of 440 and 490 nm respectively. On average, 5-7 transfected and non transfected cells were selected by fixing an ROI (region of interest). The extinction was measured at 340 nm (calcium-bound Fura-2/AM) and 380 nm (free Fura-2/AM), and the emission was measured at 510 nm. Evaluation took place using the Image Master 1.x software by forming the quotient of 340:510 nm, 380:510 nm and the ratio of 340/380:510 nm (background corrected images) as a function of the agent added.
Agents were always added 6 min after starting the measurement by removing an appropriate volume of Na^+ HBS buffer and pipetting the agent directly into the sample vessel for a further 30 to 50 min. The total volume in the sample vessel was constant at 1.5 ml throughout the experiment. […] Addition of CdCl2 and nifedipine took place immediately at the start of the experiment and before addition of α-LTX, and EGTA was added both at the start of the experiment and 4 min after the addition of α-LTX. Dissolved α-LTX was present in a concentration of 300 nM in 50 mM tris-HCl, pH 8.0; BAY 44-4400 was initially dissolved in pure DMSO (stock solutions between 0.004 and 10 μg/ml). The stock solutions were adjusted to the required concentration in the Na^+ HBS buffer. The maximum amount of the active substance BAY 44-4400 which could be dissolved at a final concentration of 0.1% DMSO was found by setting up serial dilutions in Na^+ HBS.
The data were analyzed using the Excel 98 table calculation programme. The results are derived from at least 2-4 reproduced experiments on in each case 4-8 transfected and un-transfected cells.

[2] = test system: nematodes; test: Anthelmintic / neuropharmacological activity on nematodes
[3] = test system: HC110-R; test: Ca2+ imaging of HEK-293 cells expressing HC110-R-Myc/His; format: cell-based, Haemonchus contortus; details: stably expressing cells; 400 ng/ml added 6 min before 75 nM α-LTX
[4] = target: T1, β2-R-GFP (Mus musculus, UniProt P18762); test: PF1022A binding by FACScan, β2-R-GFP control cells
T1 construct: was fused with a C-terminal EGFP tag by amplifying the full-length cDNA with the P117 mouse 2AR XhoI 5′ primer; expressed in transfected cells; host or cells: HEK-293, transient (pEGFP-N3)
T1 sequence (P18762 whole entry, the tested form may be a part): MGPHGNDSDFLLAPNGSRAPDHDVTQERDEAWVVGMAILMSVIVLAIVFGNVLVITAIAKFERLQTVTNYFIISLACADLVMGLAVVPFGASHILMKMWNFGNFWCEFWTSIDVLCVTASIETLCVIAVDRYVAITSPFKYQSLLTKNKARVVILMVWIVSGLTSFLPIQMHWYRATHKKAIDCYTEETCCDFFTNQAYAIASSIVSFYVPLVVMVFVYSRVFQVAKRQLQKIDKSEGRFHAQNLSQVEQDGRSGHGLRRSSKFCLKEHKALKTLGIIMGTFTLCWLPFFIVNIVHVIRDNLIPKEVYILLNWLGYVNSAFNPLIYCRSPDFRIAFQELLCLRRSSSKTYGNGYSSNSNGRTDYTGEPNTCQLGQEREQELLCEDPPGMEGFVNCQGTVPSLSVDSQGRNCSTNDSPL
Description: (§1) For this purpose, HEK-293 cells were transiently transfected with HC110-R-GFP or GFP-HC110-R or else transiently cotransfected with HC110-R-Myc/His and GFP. […] 24 h after the transfection, the cells were incubated with biotinylated PF1022A, and PF1022A-bound cells were detected using streptavidin-phycoerythrin and were finally fixed. A negative control of cells transfected with HC110-R-GFP was incubated only with streptavidin-phycoerythrin without PF1022A-biotin.
(§2) Phycoerythrin has—like TRITC—an absorption spectrum which overlaps with EGFP, while the emission spectra are adequately separated, so that both fluorochromes can be excited at only one wavelength. Cell detritus was excluded from the measurement of the fluorescence intensity by setting a ‘gate’ on the main cell population. For quantitative evaluation, the limits were fixed for negative, unstained and positive, GFP-fluorescent cells on the basis of the untransfected and GFP-transfected cells.
(§3) In each case 5×10^5 HEK-293 cells which were not transfected, were transiently transfected with GFP, HC110-R-GFP, GFP-HC110-R, β2-R-GFP and M1-R-GFP, and transiently cotransfected with HC110-R-Myc/His and GFP were incubated, 24 h after the transfection, with 0.5 μg/ml PF1022A-biotin and streptavidin-phycoerythrin (1:300) and then fixed. […]

[5] = test system: HC110-R; format: binding, Haemonchus contortus; details: renatured; fragment expressed in E. coli
Source text: Since denaturation of proteins is necessary for carrying out SDS-PAGE, there may be destruction of conformation-dependent epitopes. Antibodies or proteins which specifically recognize such epitopes may therefore no longer bind. […] BAY44-4400 differs from PF1022A by 2 morpholine residues which are covalently bonded to the phenyl rings of the two D-phenyllactyl radicals of PF1022A. […] For this purpose, total protein from untransfected HEK-293 cells and HEK-293 cells which transiently express HC110-R-Myc/His, and from the 54 kDa N terminus and the 21 kDa C terminus of HC110-R which were expressed in E. coli, were fractionated by SDS-PAGE, renatured and blotted in the usual way. […] In addition, a partially renatured SDS polyacrylamide gel with the protein fractions of untransfected HEK-293 cells, HEK-293 cells transiently transfected with HC110-R-Myc/His, and the N terminus of HC110-R expressed in E. coli and total protein from H. contortus was blotted, incubated with PF1022A-biotin and detected using streptavidin HRP.

[6] = target: T2, M1-R-GFP (Homo sapiens, UniProt P11229); test: PF1022A binding by FACScan, M1-R-GFP control cells
T2 construct: The full-length cDNA of a human muscarinic receptor 1 (huM1Rez); expressed in transfected cells; host or cells: HEK-293, transient (pEGFP-N3)
T2 sequence (P11229 1-460): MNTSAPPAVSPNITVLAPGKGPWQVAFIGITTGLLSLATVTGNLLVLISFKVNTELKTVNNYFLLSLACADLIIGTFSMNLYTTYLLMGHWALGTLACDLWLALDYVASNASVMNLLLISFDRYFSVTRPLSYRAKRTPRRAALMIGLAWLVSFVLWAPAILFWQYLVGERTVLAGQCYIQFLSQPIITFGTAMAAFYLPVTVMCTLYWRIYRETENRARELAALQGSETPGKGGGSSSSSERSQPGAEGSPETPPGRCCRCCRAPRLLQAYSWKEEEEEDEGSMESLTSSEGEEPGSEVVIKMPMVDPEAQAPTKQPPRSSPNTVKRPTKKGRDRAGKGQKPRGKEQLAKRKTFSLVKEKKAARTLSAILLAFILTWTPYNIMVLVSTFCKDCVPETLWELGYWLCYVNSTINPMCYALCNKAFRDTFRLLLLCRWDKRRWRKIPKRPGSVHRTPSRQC
Description: as §1, §2, §3

[7] = test system: HC110-R; format: binding, Haemonchus contortus; details: mixture of N terminus and C terminus expressed in E. coli
Description: In a control mixture with 4 mg of Dynal beads, TST buffer was added in place of PF1022A. Excess PF1022A-biotin was removed by magnetic separation before a mixture of the HC110-R terminus and C terminus expressed in E. coli and previously purified by affinity chromatography was added. After renewed magnetic separation to remove unbound HC110-R fragments, one aliquot derived from 2 mg, and one from 4 mg, of Dynal beads was fractionated by SDS-PAGE and blotted. Detection of the precipitate took place via the N-terminally fused His tag with a mouse anti-His IgG and a rabbit anti-mouse IgG HRP antibody. […] Nonspecific binding of the N or C terminus of HC110-R to the streptavidin-coupled beads was precluded by adding no biotinylated PF1022A to a reaction mixture.

[8] = test system: HC110-R; test: PF1022A binding to HC110-R-transfected HEK-293 cells by FACScan; parameters: species or system Haemonchus contortus; details: for Phycoerythrin fluorescence: 0.5 μg/ml PF1022A-biotin + streptavidin-phycoerythrin
Description: as §1, §2
(§4) In each case 5×10^5 HEK-293 cells which were not transfected, were transiently transfected with GFP, HC110-R-GFP, GFP-HC110-R, β2-R-GFP and M1-R-GFP, and transiently cotransfected with HC110-R-Myc/His and GFP were incubated, 24 h after the transfection, with 0.5 μg/ml PF1022A-biotin and streptavidin-phycoerythrin (1:300) and then fixed. As negative controls, HC110-R-GFP-transfected cells were incubated only with streptavidin-phycoerythrin, without PF1022A-biotin. […] The standard deviation is derived by determining the means of triplicate mixtures.

[9] = test system: HEK-293 cells; test: PF1022A binding by FACScan, untransfected and GFP-transfected control cells; parameters: species or system human; details: for Phycoerythrin fluorescence: 0.5 μg/ml PF1022A-biotin + streptavidin-phycoerythrin
Description: as §1, §2, §4

[10] = test system: nematodes; details: depending on the particular species (Terada, 1992); cited from earlier work
[11] = Ca2+ imaging, arecoline stimulation of untransfected HEK-293 cells; format: cell-based, human; details: 1 mM arecoline; absence of BAY44-4400

## O=C(O)CN(CCOCCOCCN(CC(=O)O)CC(=O)O)CC(=O)O [EGTA]
[1]; 2 mM EGTA before or after addition of α-LTX
  α-LTX-induced increase in [Ca2+]i with extracellular Ca2+ removed: only a small increase

## CC(C)C[C@@H]1C(=O)O[C@@H](Cc2ccccc2)C(=O)N(C)[C@H](CC(C)C)C(=O)O[C@@H](C)C(=O)N(C)[C@H](CC(C)C)C(=O)O[C@@H](Cc2ccccc2)C(=O)N(C)[C@H](CC(C)C)C(=O)O[C@@H](C)C(=O)N1C [PF1022-001, cyclo(-L-Lac-D-MeLeu-L-PhLac-D-Me-Leu-)2]
[2]
  anthelmintic / nematicidal activity in words: has no anthelmintic activity; also recorded: virtually ineffective
[1]; 4 ng/ml added 6 min before 75 nM α-LTX
  α-LTX-induced increase in [Ca2+]i in presence of substance: 103 ± 11.5 nM
[1]; 4 ng/ml added 6 min before 75 nM α-LTX, listed as optical antipode
  α-LTX-induced increase in [Ca2+]i in presence of substance: 67 nM
[1]; 4 ng/ml or 400 ng/ml, 90 min preincubation, no α-LTX
  change in [Ca2+]i after preincubation with substance alone: no change in [Ca^2+]i
[1]; 4 ng/ml, 90 min preincubation
  α-LTX-induced increase in [Ca2+]i after preincubation: 102 ± 6.4 nM
[1]; 400 ng/ml added 6 min before 75 nM α-LTX
  α-LTX-induced increase in [Ca2+]i in presence of substance: 112+14.3 nM
[1]; 400 ng/ml where stated, no α-LTX, up to 50 min or 90 min preincubation
  Ca2+ response to substance alone: neither the very effective nematicide BAY44-4400 nor the virtually ineffective antipode PF1022-001 induces a Ca^2+ response
[1]; 400 ng/ml, 90 min preincubation
  α-LTX-induced increase in [Ca2+]i after preincubation: 109 ± 8.4 nM and 110 nM
[1]; 400 ng/ml, 90 minutes preincubation, 6 minutes after 75 nM α-LTX
  reduction of α-LTX-induced Ca2+ increase: 59%
[1]; 100, 300 or 400 ng/ml and 1 or 10 μg/ml, 50 min, untransfected and HC110-R-GFP-transfected cells
  Ca2+-mediated response to substance alone: At no concentration was a Ca^2+-mediated response detectable
[1]; concentration above 4 ng/ml, added 6 minutes before 75 nM α-LTX
  α-LTX-induced increase in Ca2+ at increased concentration of substance: 20 nM
[3]
  α-LTX-induced increase in [Ca2+]i in presence of substance: 209 ± 33.4 nM

## CC(C)C[C@H]1C(=O)O[C@H](Cc2ccccc2)C(=O)N(C)[C@@H](CC(C)C)C(=O)O[C@H](C)C(=O)N(C)[C@@H](CC(C)C)C(=O)O[C@H](Cc2ccccc2)C(=O)N(C)[C@@H](CC(C)C)C(=O)O[C@H](C)C(=O)N1C [PF1022A, cyclo(-D-Lac-L-MeLeu-D-PhLac-L-MeLeu-)2]
[4]
  Phycoerythrin fluorescence: 0.8 ± 0.1%
[4]; cells expressing 2-R-GFP
  percentage of green-fluorescent cells that bind PF1022A: 9.9%
[5]
  binding to 21 kDa C terminus of HC110-R: no specific PF1022A binding
[6]
  Phycoerythrin fluorescence: 1.6 ± 0.1%
[6]; cells expressing M1-R-GFP
  percentage of green-fluorescent cells that bind PF1022A: 19.2%
[7]
  precipitation of HC110-R fragments: Only the N-terminal 54 kDa region of HC110-R is precipitated
[1]; 4 ng/ml or 400 ng/ml, 90 minutes preincubation, removed before α-LTX
  change in response to α-LTX after preincubation: no significant change in their response to α-LTX
[8]; cells cotransfected with HC110-R-Myc/His and GFP
  percentage of green-fluorescent cells that bind PF1022A: 44.5%
[8]; cells expressing GFP-HC110-R
  percentage of green-fluorescent cells that bind PF1022A: 26.8%
[8]; cells expressing HC110-R-GFP
  percentage of green-fluorescent cells that bind PF1022A: 41.2%
[8]; plasmid GFP-HC110-R
  Phycoerythrin fluorescence: 2.5 ± 0.3%
[8]; plasmid HC110-R-GFP, nonspecific staining subtracted
  Phycoerythrin fluorescence: 4.5 ± 0.4%
[8]; plasmids HC110-R-Myc/His + GFP
  Phycoerythrin fluorescence: 10.3 ± 0.7%
[9]; cells expressing GFP
  percentage of green-fluorescent cells that bind PF1022A: 7.5%
[9]; plasmid GFP
  Phycoerythrin fluorescence: 1.3 ± 0.4%
[9]; untransfected
  Phycoerythrin fluorescence: 0 ± 0%
[10]
  concentrations at which effect on nematodes is exerted: 100 to 800 ng/mL

## COC(=O)C1=CCCN(C)C1 [arecoline]
[11]
  arecoline-induced increase in Ca2+: 27 ± 3.5 nM
